Test systems include 786-0 renal; CCRF-CEM leukemia; HL-60(TB) leukemia; K-562 leukemia; MALME-3M melanoma; MCF7 breast; NCI-H522 lung; NCI/ADR-RES ovarian; SNB-19 CNS; UO-31 renal.
Assay in all cases: DTP human tumour cell line panel, 48 h

Structures are written as SMILES. Values joined by “and” are separate entries in the source; they are usually repeats but may differ in a detail not shown here. Identical values can stand only once.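 Five compound concentrations were applied to cells in 96-well plates for 48 hours; endpoints were derived by simple linear interpolation of the resulting dose-response curve. GI50 marks 50% less growth. TGI: total growth inhibition.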

Usually GI50 stands for the concentration giving 50% growth inhibition. What is called TGI is the concentration giving total growth inhibition. A higher TGI goes with lower sensitivity of the cells. With `CC1(C)N=C(N)N=C(N)N1c1ccc(OCC(=O)Nc2ccc(S(=O)(=O)F)cc2Cl)c(Cl)c1`, the GI50 is 3.13 µM with 786-0 renal; 0.277 µM in the experiment with CCRF-CEM leukemia; 1.46 µM in the experiment with HL-60(TB) leukemia; 0.594 µM in the experiment with K-562 leukemia; 33.8 µM with MALME-3M melanoma; 2.24 µM in the experiment on MCF7 breast. Moreover, the GI50 in the experiment with NCI-H522 lung is 7.09 µM; with NCI/ADR-RES ovarian, 61.1 µM; in the experiment with SNB-19 CNS it was > 100 µM; in the experiment on UO-31 renal, 44.7 µM. Further, the concentration for total growth inhibition (TGI) in the experiment with 786-0 renal, in the experiment with CCRF-CEM leukemia, in the experiment with HL-60(TB) leukemia, in the experiment with K-562 leukemia, in the experiment with MALME-3M melanoma and with MCF7 breast was > 100 µM in each case. Further, the TGI in the experiment on NCI-H522 lung, in the experiment with NCI/ADR-RES ovarian, with SNB-19 CNS and in the experiment with UO-31 renal was > 100 µM in each case.
With `CN1C(=O)C(N=Nc2ccc([N+](=O)[O-])cc2)SC1=S` (stereo unspecified), the GI50 with 786-0 renal is 8.12 µM and 10.7 µM; in the experiment with CCRF-CEM leukemia it was 6.51 µM; in the experiment with HL-60(TB) leukemia it was 0.678 µM and 2.84 µM; in the experiment on K-562 leukemia, 0.625 µM and 2.17 µM; with MALME-3M melanoma it was 3.26 µM and 18.5 µM; in the experiment with MCF7 breast, 6.1 µM and 16.6 µM. The GI50 was 4.52 µM and 3 µM in the experiment with NCI-H522 lung; 2.62 µM and 4.58 µM in the experiment with NCI/ADR-RES ovarian; 6.62 µM and 11 µM with SNB-19 CNS; 1.26 µM and 3.55 µM in the experiment with UO-31 renal. Further, the TGI in the experiment with 786-0 renal was 80 µM and 58.2 µM; in the experiment with CCRF-CEM leukemia, > 100 µM; with HL-60(TB) leukemia it was 8.68 µM and 8.38 µM; with K-562 leukemia, > 100 µM; with MALME-3M melanoma, 19.5 µM and > 100 µM; in the experiment on MCF7 breast it was > 100 µM. Moreover, the TGI was 52.5 µM and 47.9 µM in the experiment on NCI-H522 lung; 64.4 µM and 37 µM with NCI/ADR-RES ovarian; > 100 µM with SNB-19 CNS; 8.82 µM and 74.7 µM in the experiment with UO-31 renal.
Turning to `CNC(=O)/C=C/C1=CN2C(=O)c3ccc(C)c(O)c3NC(OC)C2C1` (stereo unspecified), the TGI with 786-0 renal is 9.15 µM; in the experiment with CCRF-CEM leukemia it was > 4.64 µM; with HL-60(TB) leukemia, 0.865 µM; in the experiment with K-562 leukemia it was > 100 µM; with MALME-3M melanoma, 0.0448 µM; in the experiment with MCF7 breast, 16.6 µM. The TGI in the experiment on NCI-H522 lung is < 0.0169 µM; in the experiment with NCI/ADR-RES ovarian, < 0.0323 µM; with SNB-19 CNS, 27.6 µM; in the experiment on UO-31 renal, 0.265 µM.
As to `CCOC(=O)c1c(C)n([O-])c2cc(F)c(F)cc2[n+]1=O`, the GI50 with 786-0 renal is 6.73 µM; in the experiment with CCRF-CEM leukemia it was 1.1 µM; in the experiment on HL-60(TB) leukemia it was 0.105 µM; with K-562 leukemia, 0.697 µM; with MALME-3M melanoma, 0.717 µM; in the experiment on MCF7 breast, 4.32 µM. Further, the GI50 is 1.04 µM with NCI-H522 lung, 0.432 µM with NCI/ADR-RES ovarian, 1.53 µM in the experiment on SNB-19 CNS and 1.44 µM in the experiment on UO-31 renal. The TGI with 786-0 renal is 19.8 µM; in the experiment on CCRF-CEM leukemia, 7.84 µM; in the experiment with K-562 leukemia, > 20.4 µM; in the experiment on MALME-3M melanoma, 1.83 µM; in the experiment with MCF7 breast it was > 37.4 µM; in the experiment with NCI-H522 lung it was 2.72 µM. Further, the results for the TGI in the experiment on NCI/ADR-RES ovarian, in the experiment with SNB-19 CNS and in the experiment on UO-31 renal were 1.98 µM, 2.86 µM and 2.85 µM, respectively.
As to `Cc1ccc(C2=NN(c3ccc(S(=O)(=O)NC(=O)NCc4ccccc4)cc3)C(c3ccc(N(C)C)cc3)C2)c(C)c1` (stereo unspecified), the GI50 in the experiment with 786-0 renal is 4.37 µM; with CCRF-CEM leukemia, 3.2 µM; in the experiment on HL-60(TB) leukemia, 3.02 µM; in the experiment with K-562 leukemia, 3.51 µM; with MALME-3M melanoma it was 2.9 µM; in the experiment with MCF7 breast, 2.99 µM. Besides, the GI50 with NCI-H522 lung was 4.48 µM; in the experiment with NCI/ADR-RES ovarian, 3.93 µM; in the experiment with SNB-19 CNS it was 4.6 µM; in the experiment on UO-31 renal, 4.27 µM. Also, the TGI was 36.1 µM in the experiment with 786-0 renal; 89 µM in the experiment with CCRF-CEM leukemia; 11.9 µM with HL-60(TB) leukemia; > 100 µM in the experiment on K-562 leukemia; 9.14 µM in the experiment on MALME-3M melanoma; 31.2 µM with MCF7 breast. Besides, the TGI is 28.7 µM in the experiment on NCI-H522 lung, 25.1 µM with NCI/ADR-RES ovarian, > 100 µM with SNB-19 CNS and 15.7 µM in the experiment with UO-31 renal.
Regarding `Cc1cc(S(=O)(=O)Nc2nc3ccccc3c(=O)n2Cc2ccco2)c(S)cc1Cl`, the GI50 was 36.1 µM in the experiment on 786-0 renal; 29.2 µM in the experiment on CCRF-CEM leukemia; 74.3 µM with HL-60(TB) leukemia; 49.7 µM in the experiment on K-562 leukemia; 54.8 µM with MALME-3M melanoma; 41.5 µM with MCF7 breast. The results for the GI50 with NCI-H522 lung, in the experiment on NCI/ADR-RES ovarian and in the experiment on UO-31 renal were 37.4 µM, 54.8 µM and 49.5 µM, respectively. For the same compound, the TGI in the experiment with 786-0 renal, with CCRF-CEM leukemia, in the experiment on HL-60(TB) leukemia, in the experiment on K-562 leukemia, in the experiment on MALME-3M melanoma and with MCF7 breast was > 100 µM in each case. The TGI with NCI-H522 lung, with NCI/ADR-RES ovarian, with SNB-19 CNS and in the experiment on UO-31 renal was > 100 µM in each case.
As for `CCOC(=O)c1c(-c2ccccc2)n2c(=O)cc(C)c3c(O)c(O)cc1c32`, the GI50 in the experiment with 786-0 renal is 11.7 µM; in the experiment with CCRF-CEM leukemia, 1.59 µM; in the experiment with HL-60(TB) leukemia, 3.34 µM; with K-562 leukemia it was 6.93 µM; in the experiment on MALME-3M melanoma, 13.7 µM; in the experiment with MCF7 breast, 3.28 µM. Besides, the GI50 in the experiment on NCI-H522 lung is 3.25 µM; in the experiment on NCI/ADR-RES ovarian, 2.47 µM; in the experiment with SNB-19 CNS it was 11.4 µM; with UO-31 renal, 8.39 µM. In addition, the TGI in the experiment on 786-0 renal was 53.7 µM; in the experiment on CCRF-CEM leukemia it was 13.9 µM; in the experiment on HL-60(TB) leukemia it was 10.8 µM; in the experiment with K-562 leukemia, 22.7 µM; with MALME-3M melanoma it was 33.6 µM; in the experiment with MCF7 breast, 13.4 µM. Besides, the TGI is 11.6 µM in the experiment on NCI-H522 lung, > 100 µM in the experiment on NCI/ADR-RES ovarian, 35.7 µM in the experiment with SNB-19 CNS and 38.7 µM in the experiment with UO-31 renal.
Turning to `O=C(O)CN1C(=O)OC(c2ccccc2)C1=O` (stereo unspecified), the TGI in the experiment on 786-0 renal, in the experiment with CCRF-CEM leukemia, in the experiment with HL-60(TB) leukemia, with K-562 leukemia, in the experiment with MALME-3M melanoma and in the experiment on MCF7 breast was > 100 µM each time. Further, the TGI with NCI-H522 lung, in the experiment on NCI/ADR-RES ovarian, in the experiment on SNB-19 CNS and in the experiment on UO-31 renal was > 100 µM each time.
`C=C(C)COc1ccc2c(c1)CCC1C2CCC2(C)C(=O)/C(=N/O)CC12` (stereo unspecified): the TGI is 13 µM with 786-0 renal; 6.61 µM in the experiment with CCRF-CEM leukemia; 5.92 µM in the experiment with HL-60(TB) leukemia; 9.96 µM in the experiment on K-562 leukemia; 29.1 µM with MALME-3M melanoma; 10.5 µM in the experiment on MCF7 breast. Further, the TGI in the experiment on NCI-H522 lung came out at 17.4 µM; in the experiment on NCI/ADR-RES ovarian it was 21.8 µM; in the experiment with SNB-19 CNS, 25.4 µM; in the experiment on UO-31 renal it was 15.3 µM.
`COc1ccc(C2=C(c3ccccc3)C(=O)N3CCCC3C2)cc1` (stereo unspecified): the GI50 was 1.13 µM with 786-0 renal; 1.79 µM in the experiment with CCRF-CEM leukemia; 0.493 µM in the experiment with HL-60(TB) leukemia; 0.0893 µM in the experiment with K-562 leukemia; > 100 µM in the experiment with MALME-3M melanoma; 2.98 µM with MCF7 breast. The GI50 in the experiment on NCI-H522 lung was 0.821 µM; in the experiment with NCI/ADR-RES ovarian, 8.85 µM; in the experiment on SNB-19 CNS it was 8.01 µM; in the experiment on UO-31 renal, 2.93 µM. The TGI is > 100 µM with 786-0 renal; > 100 µM with CCRF-CEM leukemia; > 63.6 µM in the experiment on HL-60(TB) leukemia; > 100 µM in the experiment with K-562 leukemia; > 100 µM in the experiment with MALME-3M melanoma; > 100 µM in the experiment on MCF7 breast. Moreover, the TGI in the experiment on NCI-H522 lung, in the experiment with NCI/ADR-RES ovarian, in the experiment on SNB-19 CNS and with UO-31 renal was > 100 µM each time.
On to `CC(C)(C)N1CC1CNC(=O)C(=O)NCC1CN1C(C)(C)C` (stereo unspecified), for which the TGI with 786-0 renal is 4.31 µM; in the experiment on CCRF-CEM leukemia, 15.2 µM; in the experiment on HL-60(TB) leukemia it was 4.57 µM; in the experiment with K-562 leukemia, 15 µM; with MALME-3M melanoma, 8.68 µM; with MCF7 breast, > 100 µM. The TGI in the experiment on NCI-H522 lung is 2.15 µM; with NCI/ADR-RES ovarian it was > 54 µM; with SNB-19 CNS it was > 25.5 µM; with UO-31 renal, > 21.3 µM.
Consider `O=C(/C=C(/C=C/c1cccc2[nH]ccc12)OB(F)F)/C=C/c1cccc2[nH]ccc12`, for which the GI50 with 786-0 renal is 0.477 µM; with CCRF-CEM leukemia, 0.324 µM; with HL-60(TB) leukemia it was 0.641 µM; in the experiment with K-562 leukemia, 0.423 µM; with MALME-3M melanoma, 1.01 µM; in the experiment with MCF7 breast, 0.436 µM. The GI50 with NCI-H522 lung was 0.359 µM; in the experiment with NCI/ADR-RES ovarian, 0.399 µM; in the experiment on SNB-19 CNS, 1.44 µM. The TGI is 5.03 µM in the experiment on 786-0 renal; 7.23 µM with HL-60(TB) leukemia; > 100 µM with K-562 leukemia; 8.56 µM in the experiment on MALME-3M melanoma; 9.45 µM in the experiment on MCF7 breast; 2.24 µM with NCI-H522 lung. Moreover, the TGI in the experiment with NCI/ADR-RES ovarian was > 100 µM; with SNB-19 CNS it was 4.16 µM.
Turning to `Nc1nc(N)c2cc(S(=O)(=O)c3ccc4ccccc4c3)ccc2n1`, the TGI in the experiment on 786-0 renal, in the experiment with CCRF-CEM leukemia, in the experiment with HL-60(TB) leukemia, with K-562 leukemia, in the experiment with MALME-3M melanoma and in the experiment on MCF7 breast was > 100 µM in each case. In addition, the TGI was > 93 µM in the experiment on NCI-H522 lung, > 100 µM with NCI/ADR-RES ovarian and 63.5 µM with SNB-19 CNS. In addition, the GI50 was > 100 µM with CCRF-CEM leukemia and 5.17 µM with MCF7 breast.

The values above are taken from PubChem BioAssay (NCI).
